{
  "source": "patent US20250000128A1",
  "about": "“SALTINESS ENHANCING COMPOSITION, AND COMPOSITION FOR ORAL USE AND METHOD OF ENHANCING SALTINESS THEREOF” (Nagase Viita Co., Ltd., priority 2021, published 2025)",
  "experiment": "Sensory evaluation of saltiness enhancing effect in aqueous salt solution (Experiments 2 and 3); note: key: A test sample for which the majority of the expert panelists evaluated as having a stronger saltiness than the control sample was determined as having a saltiness enhancing effect (Good); a sample for which they did not so was determined as having no saltiness enhancing effect (Bad); *2: Undetermined whether saltiness was enhanced or not due to strong bitterness",
  "type": "in vivo, human",
  "procedure": "The preparation of 3″-α-GN prepared in Experiment 1, Sunphenon EGCg-OP (from Taiyo Kagaku Co., Ltd., epigallocatechin gallate (EGCg), 95.3% pure), naringin (from Sichuan Xinhua Health Biotechnology Co., Ltd., 98.2% pure) or Hayashibara Hesperidin S (from Hayashibara Co., Ltd., monoglucosyl hesperidin, 82.1% pure), and salt (from The Salt Industry Center of Japan, the purity of sodium chloride was 99% or higher) were dissolved in pure water to give concentrations as shown in Table 1 below for preparing aqueous solutions of a control sample and test samples 1-1 to 1-5. Then, 9 panelists competent in food sensory evaluation who had passed the five-taste test (hereinafter referred to as “expert panelists”) conducted sensory evaluation tests on the test samples. Specifically, each of the expert panelists held a room-temperature control sample and a room-temperature test sample in her/his mouth and evaluated whether the saltiness of the test sample was weaker, similar, or stronger than that of the control sample, and recorded the overall taste.\nControl samples 2 and 3 and test samples 9 and 10 were prepared as in Experiment 2, except that the concentrations of 3″-α-GN and salt were changed as shown in Table 2 below. Sensory evaluation tests were then conducted as in Experiment 2 to evaluate the intensity of saltiness of the test samples including 3″-α-GN as compared with the control samples of the same salt concentrations.",
  "key": {"[1]": {"conditions": "5 ppm in water, salt 0.5 mass % (test samples 3, 6, 7)"}},
  "data": [
    {"compound": "CC1O[C@@H](OC2C(O[C@H]3OC(CO)[C@@H](O)C(O)C3O)[C@H](O)C(CO)O[C@H]2Oc2cc(O)c3c(c2)OC(c2ccc(O)cc2)CC3=O)C(O)C(O)[C@H]1O", "note": "(stereo partly drawn) [3″-α-GN, 3″-α-monoglucosyl naringin]", "values": [
      {"measurement": "Saltiness enhancing effect", "setting": "0.1 ppm in water, salt 0.5 mass %, G/S 0.02×10^−3 (test sample 1 vs control sample 1)", "value": "Good"},
      {"measurement": "Saltiness enhancing effect", "setting": "1 ppm in water, salt 0.5 mass %, G/S 0.2×10^−3 (test sample 2)", "value": "Good"},
      {"measurement": "Saltiness enhancing effect", "setting": "1 ppm in water, salt 1 mass %, G/S 0.1×10^−3 (test sample 9 vs control sample 2)", "value": "Good"},
      {"measurement": "Saltiness enhancing effect", "setting": "1 ppm in water, salt 2 mass %, G/S 0.05×10^−3 (test sample 10 vs control sample 3)", "value": "Good"},
      {"measurement": "Saltiness enhancing effect", "setting": "[1]", "value": "Good"},
      {"measurement": "Saltiness enhancing effect", "setting": "10 ppm in water, salt 0.5 mass %, G/S 2.0×10^−3 (test sample 4)", "value": "Good"},
      {"measurement": "Saltiness enhancing effect", "setting": "40 ppm in water, salt 0.5 mass %, G/S 8.0×10^−3 (test sample 5)", "value": "*2"}
    ]},
    {"compound": "O=C(O[C@@H]1Cc2c(O)cc(O)cc2O[C@@H]1c1cc(O)c(O)c(O)c1)c1cc(O)c(O)c(O)c1", "note": "[EGCg, epigallocatechin gallate, reference compound]", "values": [
      {"measurement": "Saltiness enhancing effect", "setting": "[1]", "value": "Bad"}
    ]},
    {"compound": "C[C@@H]1O[C@@H](O[C@H]2[C@H](Oc3cc(O)c4c(c3)O[C@H](c3ccc(O)cc3)CC4=O)O[C@H](CO)[C@@H](O)[C@@H]2O)[C@H](O)[C@H](O)[C@H]1O", "note": "[Naringin, naringin, reference compound]", "values": [
      {"measurement": "Saltiness enhancing effect", "setting": "[1]", "value": "Bad"}
    ]},
    {"compound": "monoglucosyl hesperidin [reference compound]", "values": [
      {"measurement": "Saltiness enhancing effect", "setting": "4 ppm in water, salt 0.5 mass % (test sample 8)", "value": "Bad"}
    ]}
  ]
}
